{"source": "patent US20080109040A1", "about": "“METHOD OF TREATING ARRHYTHMIAS” (priority 2002, published 2008)", "key": {"late INa": {"molecular_target": "late INa (Canis lupus familiaris, UniProt Q865W3)", "sequence (Q865W3 1-2013)": "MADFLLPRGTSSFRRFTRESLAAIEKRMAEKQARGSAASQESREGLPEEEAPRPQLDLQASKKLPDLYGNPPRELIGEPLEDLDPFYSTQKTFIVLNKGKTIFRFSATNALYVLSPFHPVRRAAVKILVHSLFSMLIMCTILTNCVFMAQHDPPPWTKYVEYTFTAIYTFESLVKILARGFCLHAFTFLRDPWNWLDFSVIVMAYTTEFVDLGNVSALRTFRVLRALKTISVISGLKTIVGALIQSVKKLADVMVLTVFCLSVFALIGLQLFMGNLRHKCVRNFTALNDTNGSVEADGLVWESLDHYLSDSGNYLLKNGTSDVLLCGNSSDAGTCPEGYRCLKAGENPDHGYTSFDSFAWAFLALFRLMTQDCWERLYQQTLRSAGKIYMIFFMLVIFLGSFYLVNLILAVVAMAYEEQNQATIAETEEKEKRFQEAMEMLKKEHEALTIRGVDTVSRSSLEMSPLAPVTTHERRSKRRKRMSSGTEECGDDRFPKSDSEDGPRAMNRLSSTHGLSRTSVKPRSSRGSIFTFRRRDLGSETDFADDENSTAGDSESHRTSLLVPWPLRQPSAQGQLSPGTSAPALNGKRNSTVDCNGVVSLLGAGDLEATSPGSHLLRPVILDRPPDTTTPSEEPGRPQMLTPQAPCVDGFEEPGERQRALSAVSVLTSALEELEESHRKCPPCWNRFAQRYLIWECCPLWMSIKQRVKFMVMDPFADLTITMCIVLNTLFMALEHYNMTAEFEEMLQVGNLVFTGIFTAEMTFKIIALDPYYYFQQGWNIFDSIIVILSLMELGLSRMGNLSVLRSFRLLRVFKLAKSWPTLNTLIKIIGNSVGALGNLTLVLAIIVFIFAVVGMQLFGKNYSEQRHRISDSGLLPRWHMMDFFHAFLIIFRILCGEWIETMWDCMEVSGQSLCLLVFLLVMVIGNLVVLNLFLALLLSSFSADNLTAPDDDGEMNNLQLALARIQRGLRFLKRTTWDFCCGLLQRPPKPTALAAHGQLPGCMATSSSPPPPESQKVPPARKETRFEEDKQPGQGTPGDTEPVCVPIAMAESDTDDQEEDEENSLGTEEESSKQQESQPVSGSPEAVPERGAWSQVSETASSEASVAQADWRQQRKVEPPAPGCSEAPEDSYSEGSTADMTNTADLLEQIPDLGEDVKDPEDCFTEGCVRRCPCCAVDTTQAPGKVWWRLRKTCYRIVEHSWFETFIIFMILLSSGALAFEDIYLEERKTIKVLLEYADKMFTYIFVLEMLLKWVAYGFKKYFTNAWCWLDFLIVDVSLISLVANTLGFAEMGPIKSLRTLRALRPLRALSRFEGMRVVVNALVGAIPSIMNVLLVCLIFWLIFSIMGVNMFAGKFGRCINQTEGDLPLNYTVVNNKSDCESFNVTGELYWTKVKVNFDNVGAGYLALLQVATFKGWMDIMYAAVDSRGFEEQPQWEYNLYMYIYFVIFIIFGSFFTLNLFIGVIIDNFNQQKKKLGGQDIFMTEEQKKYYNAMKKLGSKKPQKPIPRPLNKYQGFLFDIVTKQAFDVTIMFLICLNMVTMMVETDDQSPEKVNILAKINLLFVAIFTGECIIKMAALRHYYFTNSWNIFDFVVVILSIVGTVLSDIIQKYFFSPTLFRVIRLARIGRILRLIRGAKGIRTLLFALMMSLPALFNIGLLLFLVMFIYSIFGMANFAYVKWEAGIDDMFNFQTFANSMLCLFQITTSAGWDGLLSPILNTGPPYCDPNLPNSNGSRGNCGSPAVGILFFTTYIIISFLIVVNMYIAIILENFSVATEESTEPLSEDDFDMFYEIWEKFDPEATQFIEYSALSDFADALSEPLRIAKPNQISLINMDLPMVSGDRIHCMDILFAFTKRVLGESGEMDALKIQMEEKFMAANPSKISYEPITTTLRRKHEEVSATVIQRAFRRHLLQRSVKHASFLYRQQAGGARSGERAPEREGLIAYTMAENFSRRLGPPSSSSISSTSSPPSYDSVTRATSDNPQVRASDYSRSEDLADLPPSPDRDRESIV", "assay": "Late INa during action potential voltage clamp in canine midmyocardial myocytes", "type": "cell-based"}, "[1]": {"molecular_target": "T1, rapidly activating component of the delayed rectifier current (IKr) (Canis lupus familiaris, UniProt Q9TSZ3)", "T1 construct": "Myocytes were isolated by enzymatic dissociation from a wedge-shaped section of the left ventricular free wall; endogenous in cells; host or cells: isolated canine left ventricular myocytes (epicardial and midmyocardial)", "T1 sequence (Q9TSZ3 1-1158)": "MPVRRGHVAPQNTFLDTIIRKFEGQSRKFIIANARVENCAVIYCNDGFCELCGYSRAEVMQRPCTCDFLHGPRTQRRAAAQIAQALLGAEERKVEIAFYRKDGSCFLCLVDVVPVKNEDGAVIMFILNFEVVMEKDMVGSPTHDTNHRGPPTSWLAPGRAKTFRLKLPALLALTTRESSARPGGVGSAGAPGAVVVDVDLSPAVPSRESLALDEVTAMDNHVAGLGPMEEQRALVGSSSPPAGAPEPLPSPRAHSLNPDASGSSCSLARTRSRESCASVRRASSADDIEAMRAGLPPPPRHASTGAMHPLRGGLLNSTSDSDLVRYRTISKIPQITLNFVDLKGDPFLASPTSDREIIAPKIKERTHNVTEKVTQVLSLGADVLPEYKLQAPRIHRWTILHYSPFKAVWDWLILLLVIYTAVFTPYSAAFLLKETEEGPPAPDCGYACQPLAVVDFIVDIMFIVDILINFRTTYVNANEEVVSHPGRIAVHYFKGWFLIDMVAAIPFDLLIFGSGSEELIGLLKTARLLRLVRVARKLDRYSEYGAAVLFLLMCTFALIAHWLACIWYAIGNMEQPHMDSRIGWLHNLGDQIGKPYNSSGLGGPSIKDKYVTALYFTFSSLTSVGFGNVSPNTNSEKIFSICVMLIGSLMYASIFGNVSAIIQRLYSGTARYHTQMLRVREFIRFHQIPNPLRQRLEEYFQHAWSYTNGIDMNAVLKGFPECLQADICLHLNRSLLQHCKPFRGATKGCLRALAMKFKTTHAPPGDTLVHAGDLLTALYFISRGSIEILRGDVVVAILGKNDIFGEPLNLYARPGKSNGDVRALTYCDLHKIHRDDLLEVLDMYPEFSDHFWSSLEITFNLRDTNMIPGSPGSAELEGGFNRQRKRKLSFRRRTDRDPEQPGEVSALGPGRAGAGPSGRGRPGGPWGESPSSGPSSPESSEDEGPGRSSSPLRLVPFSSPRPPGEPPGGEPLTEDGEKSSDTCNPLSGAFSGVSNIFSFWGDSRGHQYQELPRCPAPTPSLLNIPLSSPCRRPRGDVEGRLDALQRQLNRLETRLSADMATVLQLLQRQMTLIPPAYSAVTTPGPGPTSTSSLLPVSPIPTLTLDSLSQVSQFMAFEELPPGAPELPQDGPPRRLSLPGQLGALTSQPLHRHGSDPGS", "assay": "Whole cell voltage clamp of IKr tail current in isolated canine left ventricular myocytes", "type": "cell-based", "method": "Myocytes were isolated by enzymatic dissociation from a wedge-shaped section of the left ventricular free wall supplied by the left circumflex coronary artery. Cells from the epicardial and midmyocardial regions of the left ventricle were used in this study.\nInward rectifier potassium current (IK), slow delayed rectifier potassium current (IKs), and rapid delayed rectifier potassium current (IKr) were recorded at 37° C. using conventional whole cell voltage clamp configuration.\nIK1 was measured using an external solution containing 3 μM ouabain and 5 μM nifedipine to block the sodium-potassium pump and L-type calcium current (ICa,L), respectively. […] 5 μM nifedipine was present in the external solution when IKr was being recorded.\nIsolated myocytes were placed in a temperature controlled 0.5 ml chamber (Medical Systems, Greenvale, N.Y.) on the stage of an inverted microscope and superfused at a rate of 2 ml/min. […]\nIKr was measured as the time-dependent tail current elicited at a potential of −40 mV following a short 250 ms depolarizing pulse to 30 mV. Data are presented as mean ±S.E.M. IK1 was recorded during 900 msec voltage steps applied from a holding potential of −40 mV to test potentials ranging from −100 mV to 0 mV, and was characterized as the 5 msec average of the steady state current at the end of the test pulse."}}, "note": "Where two headings read alike, the source gives them in different places.", "data": [{"smiles": "COc1ccccc1OCC(O)CN1CCN(CC(=O)Nc2c(C)cccc2C)CC1", "note": "(racemic) [ranolazine, N-(2,6-dimethylphenyl)-4-[2-hydroxy-3-(2-methoxyphenoxy)propyl]-1-piperazineacetamide]", "values": [{"measurement": "IC50", "setting": "late INa; BCL 2000 ms, first value (plateau, 20 mV), read-out: Half-inhibition of late INa", "value": 5.9, "unit": "µM"}, {"measurement": "IC50", "setting": "late INa; BCL 2000 ms, second value (−28 mV), read-out: Half-inhibition of late INa", "value": 20.8, "unit": "µM"}, {"measurement": "IC50", "setting": "late INa; basic cycle length 300 ms, read-out: Half-inhibition of INa,late", "value": 11.5, "unit": "µM"}, {"measurement": "IC50", "setting": "late INa; basic cycle length 2000 ms, read-out: Half-inhibition of INa,late", "value": 20.8, "unit": "µM"}, {"measurement": "Block of IKr", "setting": "[1]; ranolazine 50 μM", "value": "almost completely blocked"}, {"measurement": "IC50", "setting": "[1]; tail current at −40 mV after 250 msec pulse to 30 mV, read-out: IC50 for inhibition of IKr tail current", "value": 11.5, "unit": "µM"}]}]}
